For orientation: EC50 means the concentration giving half of the maximal effect.

This test has as its system endogenous cellular STAT1 (phosphorylated at Tyr701) in NCI-H1373 cells. The test can be described thus: Phospho-STAT1 (Tyr701) LANCE Ultra TR-FRET Detection Assay. It is filed as cell-based. Particulars: Homo sapiens, NCI-H1373, 48 h, phospho-STAT1 (Tyr701) induction, read-out: NH1373 pSTAT1 EC50. A general note: Time-resolved FRET reads energy transfer from a long-lived donor to a nearby acceptor.
With `C[C@@H](/C=C/Cn1ccc2cc(-c3ncc(C(F)(F)F)cn3)c(F)c(F)c2c1=O)Nc1cn[nH]c(=O)c1C(F)(F)F` [Example 133, (S,E)-7,8-difluoro-2-(4-((6-oxo-5-(trifluoromethyl)-1,6-dihydropyridazin-4-yl)amino)pent-2-en-1-yl)-6-(5-(trifluoromethyl)pyrimidin-2-yl)isoquinolin-1(2H)-one], the EC50 was 2.83 nM.
In the case of `CC[C@@H](CCCn1ccc2cc(-c3ncc(OC(F)F)c(N)n3)c(F)cc2c1=O)Nc1cn[nH]c(=O)c1C(F)(F)F` [Example 360, (S)-6-(4-amino-5-(difluoromethoxy)pyrimidin-2-yl)-7-fluoro-2-(4-((6-oxo-5-(trifluoromethyl)-1,6-dihydropyridazin-4-yl)amino)hexyl)isoquinolin-1(2H)-one] it was 12.7 nM; in that of `Nc1nc(-c2cc3ccn(C[C@H]4CCC[C@H](Nc5cn[nH]c(=O)c5C(F)(F)F)C4)c(=O)c3cc2F)ncc1C(F)(F)F` [Example 227, 6-(4-amino-5-(trifluoromethyl)pyrimidin-2-yl)-7-fluoro-2-(((1S,3S)-3-((6-oxo-5-(trifluoromethyl)-1,6-dihydropyridazin-4-yl)amino)cyclohexyl)methyl)isoquinolin-1(2H)-one], 15.7 nM.
Next, `Nc1nc(-c2cc3ccn(C[C@@H]4CCC[C@H](Nc5cn[nH]c(=O)c5C(F)(F)F)C4)c(=O)c3cc2F)nc(C2CC2)c1Cl` [Example 282, 6-(4-amino-5-chloro-6-cyclopropylpyrimidin-2-yl)-7-fluoro-2-(((1R,3S)-3-((6-oxo-5-(trifluoromethyl)-1,6-dihydropyridazin-4-yl)amino)cyclohexyl)methyl)isoquinolin-1(2H)-one]: 80.1 nM.
In the case of `Nc1nc(-c2cc3ncn(CCC[C@H](COC(F)F)Nc4cn[nH]c(=O)c4C(F)(F)F)c(=O)c3cc2F)ncc1OC(F)F` [Example 374, (R)-7-(4-amino-5-(difluoromethoxy)pyrimidin-2-yl)-3-(5-(difluoromethoxy)-4-((6-oxo-5-(trifluoromethyl)-1,6-dihydropyridazin-4-yl)amino)pentyl)-6-fluoroquinazolin-4(3H)-one] it was 44.8 nM.
On to `[2H]C([2H])([2H])OC[C@@H](CCCn1cnc2cc(-c3ncc(C(F)(F)F)c(N)n3)c(F)cc2c1=O)Nc1cn[nH]c(=O)c1C(F)(F)F` [Example 432], for which the EC50 was found to be 12.7 nM.
Next, `C[C@@H](CCCn1ccc2cc(-c3ncc4c(n3)CS(=O)(=O)C4)c(F)cc2c1=O)Nc1cn[nH]c(=O)c1C(F)(F)F` [Example 225, (S)-6-(6,6-dioxido-5,7-dihydrothieno[3,4-d]pyrimidin-2-yl)-7-fluoro-2-(4-((6-oxo-5-(trifluoromethyl)-1,6-dihydropyridazin-4-yl)amino)pentyl)isoquinolin-1(2H)-one]: 957 nM; `O=c1[nH]ncc(N[C@H]2CCC[C@H]2CCn2ccc3cc(-c4ncc(C(F)(F)F)cn4)c(F)cc3c2=O)c1C(F)(F)F` (racemic) [Example 437, (rac)-7-fluoro-2-(2-((1S,2S)-2-((6-oxo-5-(trifluoromethyl)-1,6-dihydropyridazin-4-yl)amino)cyclopentyl)ethyl)-6-(5-(trifluoromethyl)pyrimidin-2-yl)isoquinolin-1(2H)-one]: 102 nM.
Next, `COc1cnc(-c2cc3ccn(CCC[C@@H](Nc4cn[nH]c(=O)c4C(F)(F)F)C4CC4)c(=O)c3cc2F)nc1N` [Example 146, 6-(4-amino-5-methoxypyrimidin-2-yl)-2-[(4R)-4-cyclopropyl-4-[[6-oxo-5-(trifluoromethyl)-1H-pyridazin-4-yl]amino]butyl]-7-fluoroisoquinolin-1-one]: 14.5 nM; `[2H]C([2H])([2H])OC[C@@H](CCCn1ccc2cc(-c3ncc(C(F)(F)F)c(N)n3)c(F)cc2c1=O)Nc1cn[nH]c(=O)c1C(F)(F)F` [Example 427, 6-[4-amino-5-(trifluoromethyl)pyrimidin-2-yl]-7-fluoro-2-[(4R)-4-[[6-oxo-5-(trifluoromethyl)-1H-pyridazin-4-yl]amino]-5-(trideuteriomethoxy)pentyl]isoquinolin-1-one]: 2.87 nM.
In the case of `Nc1nc(-c2cc3ncn(C[C@@H]4CCC[C@H](Nc5cn[nH]c(=O)c5C(F)(F)F)C4)c(=O)c3cc2F)ncc1C(F)F` [Example 236] it was 32.2 nM; in that of `Nc1nc(-c2cc3ccn(CC[C@H]4CCCC[C@@H]4Nc4cn[nH]c(=O)c4C(F)(F)F)c(=O)c3cc2F)ncc1C(F)(F)F` [Example 451, 6-[4-amino-5-(trifluoromethyl)pyrimidin-2-yl]-7-fluoro-2-[2-[(1R,2S)-2-[[6-oxo-5-(trifluoromethyl)-1H-pyridazin-4-yl]amino]cyclohexyl]ethyl]isoquinolin-1-one], 4.76 nM.
Turning to `O=c1[nH]ncc(N[C@H]2CCC[C@@H](Cn3cnc4cc(-c5nc6ccccn6n5)c(F)cc4c3=O)C2)c1C(F)(F)F` [Example 487], the EC50 was determined as 0.51 nM.
On to `CC[C@@H](CCCn1cnc2cc(-c3cnc(C(F)(F)F)c(N)n3)c(F)cc2c1=O)Nc1cn[nH]c(=O)c1C(F)(F)F` [Example 347, (S)-7-(6-amino-5-(trifluoromethyl)pyrazin-2-yl)-6-fluoro-3-(4-((6-oxo-5-(trifluoromethyl)-1,6-dihydropyridazin-4-yl)amino)hexyl)quinazolin-4(3H)-one], for which the concentration for a half-maximal effect (EC50) was 93.4 nM.
Next, `C[C@@H](CCCn1ccc2cc(-c3nc(N)c(C(F)(F)F)cc3C#N)c(F)cc2c1=O)Nc1cn[nH]c(=O)c1C(F)(F)F` [Example 290, (S)-6-amino-2-(7-fluoro-1-oxo-2-(4-((6-oxo-5-(trifluoromethyl)-1,6-dihydropyridazin-4-yl)amino)pentyl)-1,2-dihydroisoquinolin-6-yl)-5-(trifluoromethyl)nicotinonitrile]: 21.3 nM; `CC[C@@H](CCCn1ccc2cc(-c3ncc(C#N)c(N)n3)c(F)cc2c1=O)Nc1cn[nH]c(=O)c1C(F)(F)F` [Example 70, 4-amino-2-[7-fluoro-1-oxo-2-[(4S)-4-[[6-oxo-5-(trifluoromethyl)-1H-pyridazin-4-yl]amino]hexyl]-6-isoquinolyl]pyrimidine-5-carbonitrile]: 22.1 nM; `Nc1nc(-c2cc3ccn(CCC[C@H](COC(F)F)Nc4cn[nH]c(=O)c4C(F)(F)F)c(=O)c3c(F)c2F)ncc1Cl` [Example 391, (R)-6-(4-amino-5-chloropyrimidin-2-yl)-2-(5-(difluoromethoxy)-4-((6-oxo-5-(trifluoromethyl)-1,6-dihydropyridazin-4-yl)amino)pentyl)-7,8-difluoroisoquinolin-1(2H)-one]: 6.3 nM.
In the case of `COC[C@@H](CCCn1ccc2cc(-c3ncc(C(F)(F)F)cn3)c(F)cc2c1=O)Nc1cn[nH]c(=O)c1C(F)(F)F` [Example 135, (R)-7-fluoro-2-(5-methoxy-4-((6-oxo-5-(trifluoromethyl)-1,6-dihydropyridazin-4-yl)amino)pentyl)-6-(5-(trifluoromethyl)pyrimidin-2-yl)isoquinolin-1(2H)-one] it was 17.7 nM; in that of `Nc1nc(-c2cc3ccn(CCC[C@H](COC(F)F)Nc4cn[nH]c(=O)c4C(F)(F)F)c(=O)c3cc2F)ncc1OC(F)F` [Example 369, (R)-6-(4-amino-5-(difluoromethoxy)pyrimidin-2-yl)-2-(5-(difluoromethoxy)-4-((6-oxo-5-(trifluoromethyl)-1,6-dihydropyridazin-4-yl)amino)pentyl)-7-fluoroisoquinolin-1(2H)-one], 7.35 nM; in that of `CC[C@@H](CCCn1cnc2cc(-c3ncc(OC(F)F)c(N)n3)c(F)cc2c1=O)Nc1cn[nH]c(=O)c1C(F)(F)F` [Example 364, (S)-7-(4-amino-5-(difluoromethoxy)pyrimidin-2-yl)-6-fluoro-3-(4-((6-oxo-5-(trifluoromethyl)-1,6-dihydropyridazin-4-yl)amino)hexyl)quinazolin-4(3H)-one], 96.4 nM.
With `O=c1[nH]ncc(N[C@H]2COC[C@@H](Cn3ccc4cc(-c5ncc(C(F)(F)F)cn5)c(F)cc4c3=O)C2)c1C(F)(F)F` [Example 229, 7-fluoro-2-(((3R,5R)-5-((6-oxo-5-(trifluoromethyl)-1,6-dihydropyridazin-4-yl)amino)tetrahydro-2H-pyran-3-yl)methyl)-6-(5-(trifluoromethyl)pyrimidin-2-yl)isoquinolin-1(2H)-one], the 50% effective concentration (EC50) amounted to 72.5 nM.
In the case of `C[C@@H]1C[C@@H](CCCn2cnc3cc(-c4ncc(C(F)(F)F)cn4)c(F)cc3c2=O)N(c2cn[nH]c(=O)c2C(F)(F)F)C1` [Example 176, 6-fluoro-3-[3-[(2R,4R)-4-methyl-1-[6-oxo-5-(trifluoromethyl)-1H-pyridazin-4-yl]pyrrolidin-2-yl]propyl]-7-[5-(trifluoromethyl)pyrimidin-2-yl]quinazolin-4-one] it was 186 nM; in that of `O=c1[nH]ncc(N[C@H](CCCn2ccc3cc(-c4ccc(C(F)(F)F)cn4)c(F)cc3c2=O)COC(F)F)c1C(F)(F)F` [Example 399, (R)-2-(5-(difluoromethoxy)-4-((6-oxo-5-(trifluoromethyl)-1,6-dihydropyridazin-4-yl)amino)pentyl)-7-fluoro-6-(5-(trifluoromethyl)pyridin-2-yl)isoquinolin-1(2H)-one], 2.98 nM; in that of `O=c1[nH]ncc(N[C@H](CCCn2cnc3cc(-c4ncc(C(F)(F)F)cn4)c(F)cc3c2=O)COC(F)F)c1C(F)(F)F` [Example 382, (R)-3-(5-(difluoromethoxy)-4-((6-oxo-5-(trifluoromethyl)-1,6-dihydropyridazin-4-yl)amino)pentyl)-6-fluoro-7-(5-(trifluoromethyl)pyrimidin-2-yl)quinazolin-4(3H)-one], 2.17 nM.
In the case of `O=c1[nH]ncc(N2CC[C@H]2CCCn2ccc3cc(-c4ncc(C(F)(F)F)cn4)c(F)cc3c2=O)c1C(F)(F)F` (single isomer, unassigned) [Example 149] it was 3.98 nM; in that of `COc1cnc(-c2cc3ccn(CCC[C@H](C)Nc4cn[nH]c(=O)c4C(F)(F)F)c(=O)c3cc2F)nc1N1CC(O)(C(F)(F)F)C1` [Example 286, (S)-7-fluoro-6-(4-(3-hydroxy-3-(trifluoromethyl)azetidin-1-yl)-5-methoxypyrimidin-2-yl)-2-(4-((6-oxo-5-(trifluoromethyl)-1,6-dihydropyridazin-4-yl)amino)pentyl)isoquinolin-1(2H)-one], 61.9 nM.

The values are drawn from patent publication US12459922B2 (Gilead Sciences, Inc., priority 2022, dated 2025).
